Data reported in the NIST ThermoML archive (doi:10.1016/j.jct.2007.09.007).

Experiment: xn = mol fraction of the nth substance listed
Conditions: 100 kPa, Liquid

C1COCCO1 [1,4-dioxane] + CC#N
mass density [kg/m3]
Conditions	288.15 K	293.15 K	298.15 K	303.15 K
x1 = 0.0046	789.4	784.08	778.69	773.26
x1 = 0.0101	791.73	786.38	780.98	775.56
x1 = 0.0249	797.92	792.61	787.21	781.78
x1 = 0.0336	801.42	796.07	790.67	785.24
x1 = 0.0497	808.04	802.72	797.32	791.89
x1 = 0.0627	813.27	807.95	802.55	797.13
x1 = 0.1106	831.43	826.1	820.71	815.28
x1 = 0.1643	850.48	845.16	839.75	834.33
x1 = 0.2127	866.78	861.44	856.05	850.62
x1 = 0.2853	889.43	884.08	878.67	873.24
x1 = 0.3355	904	898.64	893.23	887.8
x1 = 0.4341	930.27	924.89	919.46	914.02
x1 = 0.4807	941.65	936.29	930.86	925.4
x1 = 0.5277	952.67	947.29	941.85	936.38
x1 = 0.5828	964.93	959.51	954.06	948.58
x1 = 0.6385	976.54	971.14	965.66	960.16
x1 = 0.6845	985.67	980.25	974.76	969.25
x1 = 0.7278	993.97	988.54	983.03	977.5
x1 = 0.777	1002.84	997.35	991.82	986.28
x1 = 0.8181	1010.08	1004.61	999.06	993.5
x1 = 0.8703	1018.77	1013.28	1007.7	1002.12
x1 = 0.9145	1025.86	1020.33	1014.73	1009.11
x1 = 0.9604	1032.84	1027.29	1021.66	1016.03
x1 = 0.9652	1033.57	1027.98	1022.35	1016.71
x1 = 0.9757	1035.18	1029.58	1023.93	1018.3
x1 = 0.9817	1036.07	1030.46	1024.82	1019.17
x1 = 0.99	1037.29	1031.66	1025.99	1020.36
x1 = 0.9954	1038.08	1032.48	1026.83	1021.18

CC(C)OC(C)C [diisopropyl ether] + CC#N
mass density [kg/m3]
Conditions	288.15 K	293.15 K	298.15 K	303.15 K
x1 = 0.0072	786.61	781.29	775.9	770.47
x1 = 0.015	785.8	780.49	775.1	769.68
x1 = 0.0247	784.84	779.54	774.15	768.74
x1 = 0.0308	784.29	778.97	773.59	768.17
x1 = 0.0381	783.55	778.25	772.87	767.46
x1 = 0.0482	782.56	777.27	771.89	766.48
x1 = 0.0991	777.78	772.47	767.11	761.72
x1 = 0.1496	773.32	768.06	762.72	757.34
x1 = 0.2511	765.5	760.24	754.91	749.55
x1 = 0.3069	761.73	756.5	751.18	745.83
x1 = 0.3507	758.83	753.58	748.27	742.93
x1 = 0.4104	755.28	750.02	744.74	739.4
x1 = 0.4513	752.87	747.67	742.35	737.04
x1 = 0.5132	749.57	744.35	739.06	733.73
x1 = 0.56	747.13	741.91	736.63	731.3
x1 = 0.6429	743.32	738.15	732.87	727.55
x1 = 0.6938	741.1	735.9	730.64	725.33
x1 = 0.76	738.32	733.12	727.83	722.53
x1 = 0.8129	736.2	731.02	725.76	720.46
x1 = 0.8449	735	729.8	724.53	719.26
x1 = 0.904	732.62	727.46	722.22	716.94
x1 = 0.9509	730.9	725.75	720.52	715.25
x1 = 0.963	730.42	725.28	720.05	714.78
x1 = 0.9685	730.2	725.06	719.83	714.56
x1 = 0.9815	729.68	724.52	719.32	714.06
x1 = 0.9887	729.4	724.27	719.05	713.79
x1 = 0.9945	729.15	724.02	718.81	713.55

C1CCOC1 [tetrahydrofuran] + CC#N
mass density [kg/m3]
Conditions	288.15 K	293.15 K	298.15 K	303.15 K
x1 = 0.0053	788.34	783	777.57	772.17
x1 = 0.0104	789.18	783.84	778.44	773.01
x1 = 0.0197	790.72	785.35	779.94	774.52
x1 = 0.0294	792.28	786.96	781.56	776.11
x1 = 0.0389	793.83	788.5	783.1	777.67
x1 = 0.0993	803.2	797.8	792.41	786.97
x1 = 0.1598	812.11	806.78	801.3	795.84
x1 = 0.1978	817.43	812.02	806.63	801.18
x1 = 0.2441	823.65	818.27	812.84	807.39
x1 = 0.2845	828.9	823.5	818.1	812.64
x1 = 0.3445	836.2	830.81	825.36	819.91
x1 = 0.4022	842.91	837.51	832.02	826.57
x1 = 0.4545	848.62	843.24	837.79	832.34
x1 = 0.4995	853.35	847.94	842.49	837.08
x1 = 0.5298	856.4	851.03	845.55	840.1
x1 = 0.5552	858.94	853.51	848.07	842.6
x1 = 0.6054	863.65	858.25	852.78	847.29
x1 = 0.6405	866.78	861.42	855.96	850.47
x1 = 0.6603	868.52	863.15	857.69	852.2
x1 = 0.6976	871.74	866.29	860.83	855.34
x1 = 0.747	875.76	870.32	864.86	859.36
x1 = 0.8003	879.84	874.36	868.9	863.41
x1 = 0.8179	881.06	875.68	870.22	864.73
x1 = 0.8537	883.67	878.23	872.77	867.28
x1 = 0.8975	886.63	881.19	875.76	870.25
x1 = 0.9502	890	884.59	879.13	873.61
x1 = 0.9671	890.93	885.55	880.09	874.59
x1 = 0.9745	891.4	886.03	880.56	875.07
x1 = 0.9854	892.01	886.65	881.17	875.7
x1 = 0.9877	892.14	886.76	881.29	875.8
x1 = 0.994	892.51	887.12	881.66	876.13
